A melting point compilation (Tetko et al.; mined from patent text by program, amines drawn as free bases though some values may be those of a salt)

| Compound | melting point |
| --- | --- |
| OCCC(O)OCn1ccc2c(Cl)ncnc21 (stereo not given) | 114 °C |
| COc1cc2c(cc1O)CCN(C(=O)c1cc(OC)c(OC)c(OC)c1)C2=O | 175 to 176 °C |
| CCOC(=O)Nc1ccc(OC)c(OC)c1 | 75 to 78 °C |
| CN(C)C=NC(=N[N+](=O)[O-])N(C)Cc1ccc(Cl)nc1 | 85 to 89 °C |
| Cc1cc(NC(=S)NC(=O)c2ccccc2Cl)ccc1-n1cccc1 | 134 to 136 °C |
| O=C(O)COc1c(-c2ccccc2)cc([N+](=O)[O-])cc1-c1ccccc1 | 154 to 156 °C |
| COc1ccc(C2=C(c3ccc(S(C)(=O)=O)cc3)CCC2)cc1F | 128 to 129 °C |
| OC1CCN(CCCOc2ccc3cc(-c4n[nH]c5cc(-c6ccccc6)sc45)[nH]c3c2)CC1 | 239 to 242 °C |
| Cn1c(Cc2ccc(Cl)cc2Cl)nc2cc(C(=O)O)ccc2c1=O | 266 to 271 °C |
| CCc1nc2c(N)nc3cc(OCc4ccc(C(F)(F)F)o4)ccc3c2s1 | 152 to 154 °C |
| CCNC1CC=C(c2c[nH]c3cc(NC(=N)c4cccs4)ccc23)CC1 (stereo not given) | 95 to 97 °C |
| O=C1CCc2ccc(OCCCN3CCCN(c4cccc(Cl)c4Cl)CC3)cc2N1 | 130 to 131 °C |
| Cc1c(CC(=O)O)c2ccccc2n1-c1ncnc2ccccc12 | 234 to 236 °C |
| CCOC(=O)C(=NOC)c1ccccc1CBr | 80 to 81 °C |
| COc1cc2c(cc1Nc1ncc(Cl)c(Nc3ccccc3S(=O)(=O)C(C)C)n1)CCN(CC(=O)N(C)C)CC2 | 83 to 94 °C |
| O=S1(=O)NCN(CCF)c2ccc(Br)cc21 | 122 to 124 °C |
| COc1cc(OC)c2c(C)c(CCN3CCN(c4ccccc4)CC3)c(=O)oc2c1 | 112 to 114 °C |
| CON=C1CN(c2c(F)c(N)c3c(=O)c(C(=O)O)cn(C4CC4)c3c2F)CC12CN(C)C2 | 220 to 222 °C |
| O=CNc1ccccc1Nc1ccc(C(=O)c2ccccc2)cc1 | 122 to 124 °C |
| Cc1cc(Cl)cc(C)c1NC(=O)Oc1ccccc1 | 158 to 160 °C |

| Compound | melting point |
| --- | --- |
| O=C(C=Cc1ccc(O)c(O)c1O)OCCc1ccccc1 | 144 °C |
| N#CN1CCC2(CC1)CN(c1ccccc1[N+](=O)[O-])c1ccccc12 | 148 to 150 °C |
| COC(=O)C(CO)NS(=O)(=O)c1ccc(OC)cc1 (stereo not given) | 92 to 94 °C |
| COc1ccc(-c2ccc(C(=O)O)c(C(=O)O)c2)c2c1OCCO2 | 192 to 196 °C |
| O=C1CC(c2cccc(-n3ccnc3)c2)=Nc2ccc(-c3ccc(OCc4ccccc4)nc3)cc2N1 | 225 to 231 °C |
| Cc1ccccc1NC(=O)N(C)C | 139 to 143 °C |
| CC1=C(C(=O)O)C(C)(C)CCC1=O | 181 to 183 °C |
| N=c1[nH]c2ccc(Cl)cc2c2ncnn12 | 279 to 280 °C |
| Cc1ccc2c(n1)C(=O)N(c1cccc(S(C)(=O)=O)c1C)C2=O | 237 to 239 °C |
| O=C(Sc1ccccn1)c1ccncc1 | 115 °C |
| Nc1cccc(Oc2cnc3cc(Cl)ccc3n2)c1 | 119 to 120 °C |
| COc1ccc(Oc2nc(Nc3cccc(C(=O)O)c3)nc(Oc3ccc(C=O)cc3OC)n2)cc1 | 180 to 182 °C |
| CC(C)=Nc1c2c(nc3ccccc13)CCCC2 | 127 to 130 °C |
| Cc1ccnc2c([N+](=O)[O-])cc3c(c12)OCO3 | 183 to 185 °C |
| CC1(c2cc(N3C(=O)C4=C(CCCC4)C3=O)c(F)cc2Cl)OCCO1 | 147 °C |
| CCOCc1nc2c(N)nc3ccc(OCc4ccccc4)cc3c2n1CC(C)C | 183 to 184 °C |
| CCOC(=O)CC(=O)COCC1=C(C(=O)OCC)C(c2cccc(Cl)c2Cl)C(C(=O)OC)=C(C)N1 (stereo not given) | 99 to 102 °C |
| COCNC(=O)OC(C(Oc1ccc(-c2ccccc2)cc1)n1cncn1)C(C)(C)C (stereo not given) | 95 to 98 °C |
| CS(=O)(=O)c1ccc(-c2nc(-c3cc4ccccc4o3)[nH]c2-c2ccc(F)cc2)cc1 | 235 to 237 °C |
| CCCc1c(C(=O)C2CC2)c2ccc(C(N)=O)cc2n1Cc1cc2c(cc1Cl)OCO2 | 162 to 164 °C |

Continued, values first:

| melting point | Compound |
| --- | --- |
| 101 °C | Cn1c(OCC(F)(F)C(F)F)n[nH]c1=O |
| 89 to 91 °C | CC(C)(C)OC(=O)N1C[C@@H](CC(=O)COCC[Si](C)(C)C)[C@H]2NC(=O)[C@H]21 |
| 168 °C | CC(=O)c1ccc(C2=NC[C@@H](OC(=O)Nc3ccccc3)[C@H](c3ccccc3)O2)cc1 (racemic) |
| 131 to 132 °C | CNC(=O)C(=O)CCCCCCSc1ccc(-c2ccccc2)cc1 |
| 138 to 140 °C | N#CCCOc1ccc(OCCC#N)cc1 |
| 166 to 168 °C | COc1ccc(-c2cc(=O)n(Cc3ccc(OC)c(F)c3)nc2-c2ccc(OC)cc2)cc1 |
| 295 to 296 °C | Oc1ccc(-c2nc3ccc(O)cc3c(-c3ccc(F)cc3)c2Cl)cc1 |
| 87 to 89 °C | CCOC(=O)CNC(=O)CCN(C(=O)c1ccc(Cl)cc1)c1ccc(OC)cc1 |
| 180 to 182 °C | O=C1CCC(N2Cc3c(OCc4cccc(CN5CCC(c6ccc(Cl)cc6)CC5)c4)cccc3C2=O)C(=O)N1 (stereo not given) |
| 215 to 217 °C | Nc1nc(N)c(-c2cc(Cl)cc(Cl)c2Cl)c(CF)n1 |
| 218 to 219 °C | CN(C(=O)Nc1nc(OCC(F)(F)F)nc(OCC(F)(F)F)n1)c1ccc(Cl)cc1 |
| 117 to 141 °C | CCNC(=O)c1ccccc1Nc1nc(Nc2c(OC)ccc3c2CC(=O)N(CC)CC3)ncc1Cl |
| 96 to 97 °C | COc1ccc(N(CCCCCO)S(=O)(=O)c2c(F)c(F)c(F)c(F)c2F)cc1 |
| 155 to 156 °C | Cc1ccc(NC(=O)C2CC2)c(-c2nc(C(F)(F)F)cs2)c1 |
| > 300 °C | CCCn1c(=O)c2nc(-c3ccc(/C=C/C(=O)OCC)cc3)[nH]c2n(CCC)c1=O |
| 132 to 136 °C | O=C1CCCc2c1ccc1c2OCO1 |
| 192 to 193 °C | CN(C(=O)c1cccs1)c1cccc(-c2nc(=O)c3ccccc3s2)n1 |
| 68 °C | c1ccc(-n2c(-c3cccc(OCCN4CCCCC4)c3)nc3ccccc32)cc1 |
| 226 to 227 °C | O=C(O)c1cc(Br)ccc1NCCC=C1c2ccccc2CCc2ccccc21 |
| 144 to 145 °C | COc1ccc(N2CCN(C3CN(C4c5c(C)cc(C)c(C)c5OC4(C)C)CCN3c3ccccc3)CC2)cc1 (stereo not given) |
| 108 to 109 °C | Cc1cc(S(=O)(=O)NC2CCCCC2)c2c(C)ccc(C(C)C)cc1-2 |
| > 300 °C | O=c1[nH]c(-c2c[nH]c3ccccc23)nc2ccc(N3CCCCC3)cc12 |
| 231 to 236 °C | N#CC1CCc2cc(C(=O)O)ccc2C1 (stereo not given) |
| 72 to 73 °C | CS(=O)(=O)N1CC(CN2CCCC2)Cc2ccccc21 (stereo not given) |
| 178 to 180 °C | O=[N+]([O-])c1ccc(Oc2ccccc2Oc2ccc([N+](=O)[O-])c(O)c2)cc1O |
| 229 to 230 °C | CCOC(=O)C1=C(C=NO)Nc2nccn2C1c1cccc([N+](=O)[O-])c1 (stereo not given) |
| 227 °C | CCOC(=O)c1c(N2CCN(C(=O)c3cccs3)CC2)c2cc(Cl)cnc2n(CC(=O)c2ccccc2)c1=O |
| 56 °C | C=CCN(C=O)c1ccc([N+](=O)[O-])cc1C |
| 218 °C | Cc1c2c(nc3ccccc13)CCN(C(N)=S)CC2 |
| 228 to 230 °C | O=C1C(=Cc2ccc(Cl)cc2)C(c2ccc(Cl)cc2)Oc2ccc(O)cc21 (stereo not given) |
